ChEMBL document CHEMBL3046559, “Sterile oat (Avena sterilis L.) cross-resistance profile to ACCase-inhibiting herbicides in Greece” (2012)

Tests used:
Format in all cases: functional
Avena sterilis [1] = assay: Herbicidal activity against Avena sterilis accession P18 assessed as weed survival at 1 times field recommended herbicide dose
Avena sterilis [2] = assay: Herbicidal activity against Avena sterilis accession P17 assessed as weed survival at 1 times field recommended herbicide dose
Avena sterilis [3] = assay: Herbicidal activity against Avena sterilis accession P16 assessed as weed survival at 1 times field recommended herbicide dose
Avena sterilis [4] = assay: Herbicidal activity against Avena sterilis accession P14 assessed as weed survival at 1 times field recommended herbicide dose
Avena sterilis [5] = assay: Herbicidal activity against Avena sterilis accession P12 assessed as weed survival at 1 times field recommended herbicide dose
Avena sterilis [6] = assay: Herbicidal activity against Avena sterilis accession P11 assessed as weed survival at 1 times field recommended herbicide dose
Avena sterilis [7] = assay: Herbicidal activity against Avena sterilis accession P08 assessed as weed survival at 1 times field recommended herbicide dose
Avena sterilis [8] = assay: Herbicidal activity against Avena sterilis accession P06S assessed as weed survival at 1/32 times field recommended herbicide dose
Avena sterilis [9] = assay: Herbicidal activity against Avena sterilis accession P20 assessed as weed survival at 32 times field recommended herbicide dose
Avena sterilis [10] = assay: Herbicidal activity against Avena sterilis accession P17 assessed as weed survival at 32 times field recommended herbicide dose
Avena sterilis [11] = assay: Herbicidal activity against Avena sterilis accession P03 assessed as weed survival at 1 times field recommended herbicide dose
Avena sterilis [12] = assay: Herbicidal activity against Avena sterilis accession P01 assessed as weed survival at 1 times field recommended herbicide dose
Avena sterilis [13] = assay: Herbicidal activity against Avena sterilis accession P21S assessed as induction of weed mortality
Avena sterilis [14] = assay: Herbicidal activity against Avena sterilis accession P13S assessed as induction of weed mortality
Avena sterilis [15] = assay: Herbicidal activity against Avena sterilis accession P17 assessed as induction of weed mortality
Avena sterilis [16] = assay: Herbicidal activity against Avena sterilis accession P18 assessed as induction of weed mortality
Avena sterilis [17] = assay: Herbicidal activity against Avena sterilis accession P16 assessed as induction of weed mortality
Avena sterilis [18] = assay: Herbicidal activity against Avena sterilis accession P15 assessed as induction of weed mortality
Avena sterilis [19] = assay: Herbicidal activity against Avena sterilis accession P14 assessed as induction of weed mortality
Avena sterilis [20] = assay: Herbicidal activity against Avena sterilis accession P11 assessed as induction of weed mortality
Avena sterilis [21] = assay: Herbicidal activity against Avena sterilis accession P09 assessed as induction of weed mortality
Avena sterilis [22] = assay: Herbicidal activity against Avena sterilis accession P04 assessed as induction of weed mortality
Avena sterilis [23] = assay: Herbicidal activity against Avena sterilis accession P05 assessed as induction of weed mortality
Avena sterilis [24] = assay: Herbicidal activity against Avena sterilis accession P02 assessed as induction of weed mortality
Avena sterilis [25] = assay: Herbicidal activity against Avena sterilis accession P16 assessed as weed survival at 8 times field recommended herbicide dose
Avena sterilis [26] = assay: Herbicidal activity against Avena sterilis accession P14 assessed as weed survival at 8 times field recommended herbicide dose
Avena sterilis [27] = assay: Herbicidal activity against Avena sterilis accession P15 assessed as weed survival at 32 times field recommended herbicide dose
Avena sterilis [28] = assay: Herbicidal activity against Avena sterilis accession P07 assessed as weed survival at 32 times field recommended herbicide dose
Avena sterilis [29] = assay: Herbicidal activity against Avena sterilis accession P05 assessed as weed survival at 32 times field recommended herbicide dose
Avena sterilis [30] = assay: Herbicidal activity against Avena sterilis accession P05 assessed as weed survival at 8 times field recommended herbicide dose
Avena sterilis [31] = assay: Herbicidal activity against Avena sterilis accession P03 assessed as weed survival at 32 times field recommended herbicide dose
Avena sterilis [32] = assay: Herbicidal activity against Avena sterilis accession P01 assessed as weed survival at 32 times field recommended herbicide dose
Avena sterilis [33] = assay: Herbicidal activity against Avena sterilis accession P13S assessed as weed survival at 1/16 times field recommended herbicide dose
Avena sterilis [34] = assay: Herbicidal activity against Avena sterilis accession P10S assessed as weed survival at 1/16 times field recommended herbicide dose
Avena sterilis [35] = assay: Herbicidal activity against Avena sterilis accession P06S assessed as weed survival at 1/16 times field recommended herbicide dose
Avena sterilis [36] = assay: Herbicidal activity against Avena sterilis accession P20 assessed as weed survival at 16 times field recommended herbicide dose
Avena sterilis [37] = assay: Herbicidal activity against Avena sterilis accession P18 assessed as weed survival at 16 times field recommended herbicide dose
Avena sterilis [38] = assay: Herbicidal activity against Avena sterilis accession P17 assessed as weed survival at 16 times field recommended herbicide dose
Avena sterilis [39] = assay: Herbicidal activity against Avena sterilis accession P11 assessed as weed survival at 16 times field recommended herbicide dose
Avena sterilis [40] = assay: Herbicidal activity against Avena sterilis accession P08 assessed as weed survival at 16 times field recommended herbicide dose
Avena sterilis [41] = assay: Herbicidal activity against Avena sterilis accession P03 assessed as weed survival at 16 times field recommended herbicide dose
Avena sterilis [42] = assay: Herbicidal activity against Avena sterilis accession P02 assessed as weed survival at 16 times field recommended herbicide dose
Avena sterilis [43] = assay: Herbicidal activity against Avena sterilis accession P21S assessed as weed survival at 1/8 times field recommended herbicide dose
Avena sterilis [44] = assay: Herbicidal activity against Avena sterilis accession P19S assessed as weed survival at 1/8 times field recommended herbicide dose
Avena sterilis [45] = assay: Herbicidal activity against Avena sterilis accession P22 assessed as weed survival at 8 times field recommended herbicide dose
Avena sterilis [46] = assay: Herbicidal activity against Avena sterilis accession P20 assessed as weed survival at 8 times field recommended herbicide dose
Avena sterilis [47] = assay: Herbicidal activity against Avena sterilis accession P09 assessed as weed survival at 8 times field recommended herbicide dose
Avena sterilis [48] = assay: Herbicidal activity against Avena sterilis accession P03 assessed as weed survival at 8 times field recommended herbicide dose
Avena sterilis [49] = assay: Herbicidal activity against Avena sterilis accession P02 assessed as weed survival at 8 times field recommended herbicide dose
Avena sterilis [50] = assay: Herbicidal activity against Avena sterilis accession P01 assessed as weed survival at 8 times field recommended herbicide dose
Avena sterilis [51] = assay: Herbicidal activity against Avena sterilis accession P13S assessed as weed survival at 1/4 times field recommended herbicide dose
Avena sterilis [52] = assay: Herbicidal activity against Avena sterilis accession P10S assessed as weed survival at 1/4 times field recommended herbicide dose
Avena sterilis [53] = assay: Herbicidal activity against Avena sterilis accession P20 assessed as weed survival at 4 times field recommended herbicide dose
Avena sterilis [54] = assay: Herbicidal activity against Avena sterilis accession P16 assessed as weed survival at 4 times field recommended herbicide dose
Avena sterilis [55] = assay: Herbicidal activity against Avena sterilis accession P12 assessed as weed survival at 4 times field recommended herbicide dose
Avena sterilis [56] = assay: Herbicidal activity against Avena sterilis accession P07 assessed as weed survival at 4 times field recommended herbicide dose
Avena sterilis [57] = assay: Herbicidal activity against Avena sterilis accession P04 assessed as weed survival at 4 times field recommended herbicide dose
Avena sterilis [58] = assay: Herbicidal activity against Avena sterilis accession P10S assessed as weed survival at 1 times field recommended herbicide dose

CCO/N=C(\CC)C1=C(O)CC(c2c(C)cc(C)cc2C)CC1=O (stereo not drawn) [TRALKOXYDIM]
Survival (Avena sterilis [1]): 20% | Survival (Avena sterilis [2]): 50% | Survival (Avena sterilis [3]): 77% | Survival (Avena sterilis [4]): 0% | Survival (Avena sterilis [5]): 13% | Survival (Avena sterilis [6]): 17% | Survival (Avena sterilis [7]): 63% | Survival (Avena sterilis [8]): 80% | Survival (Avena sterilis [9]): 20% | Survival (Avena sterilis [10]): 0% | Survival (Avena sterilis [11]): 77% | Survival (Avena sterilis [12]): 60% | GR50 (Avena sterilis [13]): 84 gAi/ha | GR50 (Avena sterilis [14]): 34 gAi/ha | GR50 (Avena sterilis [15]): 412 gAi/ha | GR50 (Avena sterilis [16]): <400 gAi/ha | GR50 (Avena sterilis [17]): 907 gAi/ha | GR50 (Avena sterilis [18]): 735 gAi/ha | GR50 (Avena sterilis [19]): <400 gAi/ha | GR50 (Avena sterilis [20]): <400 gAi/ha | GR50 (Avena sterilis [21]): 532 gAi/ha | GR50 (Avena sterilis [22]): 7591 gAi/ha | GR50 (Avena sterilis [23]): <400 gAi/ha | GR50 (Avena sterilis [24]): 1073 gAi/ha | Survival (Avena sterilis [25]): 17% | Survival (Avena sterilis [26]): 0% | Survival (Avena sterilis [27]): 0% | Survival (Avena sterilis [28]): 0% | Survival (Avena sterilis [29]): 0% | Survival (Avena sterilis [30]): 10% | Survival (Avena sterilis [31]): 17% | Survival (Avena sterilis [32]): 0% | Survival (Avena sterilis [33]): 67% | Survival (Avena sterilis [34]): 40% | Survival (Avena sterilis [35]): 60% | Survival (Avena sterilis [36]): 17% | Survival (Avena sterilis [37]): 0% | Survival (Avena sterilis [38]): 0% | Survival (Avena sterilis [39]): 0% | Survival (Avena sterilis [40]): 0% | Survival (Avena sterilis [41]): 20% | Survival (Avena sterilis [42]): 0% | Survival (Avena sterilis [43]): 77% | Survival (Avena sterilis [44]): 93% | Survival (Avena sterilis [45]): 20% | Survival (Avena sterilis [46]): 40% | Survival (Avena sterilis [47]): 0% | Survival (Avena sterilis [48]): 20% | Survival (Avena sterilis [49]): 20% | Survival (Avena sterilis [50]): 20% | Survival (Avena sterilis [51]): 20% | Survival (Avena sterilis [52]): 20% | Survival (Avena sterilis [53]): 80% | Survival (Avena sterilis [54]): 30% | Survival (Avena sterilis [55]): 0% | Survival (Avena sterilis [56]): 20% | Survival (Avena sterilis [57]): 77% | Survival (Avena sterilis [58]): 0%
